From patent US12187706B2, “NLRP3 modulators” (INNATE TUMOR IMMUNITY, INC., priority 2019, dated 2025) come the findings set out here.

As a reminder, the EC50 is the concentration at which the effect is half-maximal. Read a high EC50 as a need for much substance.

For the assay, the target named is T1, NLRP3 (Homo sapiens, UniProt Q96P20).
T1 construct: host or cells: PMA-differentiated THP-1 cells
T1 sequence (Q96P20 whole entry): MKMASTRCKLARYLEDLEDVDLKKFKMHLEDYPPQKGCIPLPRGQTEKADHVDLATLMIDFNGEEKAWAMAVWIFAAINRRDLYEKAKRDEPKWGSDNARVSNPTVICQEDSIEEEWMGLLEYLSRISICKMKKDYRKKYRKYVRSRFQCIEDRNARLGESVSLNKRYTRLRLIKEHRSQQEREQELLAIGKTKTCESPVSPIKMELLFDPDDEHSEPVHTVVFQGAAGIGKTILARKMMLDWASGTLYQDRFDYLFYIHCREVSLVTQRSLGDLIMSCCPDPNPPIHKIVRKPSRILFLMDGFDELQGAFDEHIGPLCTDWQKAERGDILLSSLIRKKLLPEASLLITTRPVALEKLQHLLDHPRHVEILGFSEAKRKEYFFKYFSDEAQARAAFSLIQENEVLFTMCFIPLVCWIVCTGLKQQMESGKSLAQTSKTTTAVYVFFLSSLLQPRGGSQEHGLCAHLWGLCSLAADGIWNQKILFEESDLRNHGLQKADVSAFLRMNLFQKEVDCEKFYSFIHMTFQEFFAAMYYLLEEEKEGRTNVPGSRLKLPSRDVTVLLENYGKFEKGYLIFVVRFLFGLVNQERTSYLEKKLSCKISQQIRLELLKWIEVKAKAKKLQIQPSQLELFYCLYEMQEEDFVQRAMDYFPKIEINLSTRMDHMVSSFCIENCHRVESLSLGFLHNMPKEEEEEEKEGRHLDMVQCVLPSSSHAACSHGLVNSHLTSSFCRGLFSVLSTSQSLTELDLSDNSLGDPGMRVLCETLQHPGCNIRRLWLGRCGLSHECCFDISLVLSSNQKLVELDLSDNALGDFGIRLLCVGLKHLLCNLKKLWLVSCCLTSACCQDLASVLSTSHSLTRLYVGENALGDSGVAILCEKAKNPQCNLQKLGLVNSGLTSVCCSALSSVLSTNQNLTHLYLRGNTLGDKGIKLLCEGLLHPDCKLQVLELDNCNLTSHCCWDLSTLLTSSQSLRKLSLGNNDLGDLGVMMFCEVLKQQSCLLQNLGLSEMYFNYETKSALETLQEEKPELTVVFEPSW
Description: Measurement of IL-1β production in PMA-differentiated THP-1 cells (NLRP3 hIL1B). It counts as cell-based. The method in brief:
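THP-1 cells differentiated with PMA, then replated in RPMI with 2% FBS and exposed to compound for 4 h (alternative: 2 h; hTRF protocol: 2 h at 37 °C, top concentration 10 μM). Supernatant IL-1β was quantified by ELISA or HTRF. Final DMSO 1%, with vehicle control.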
Compound `COc1cnnc(CNc2nc(N)nc3cc(-c4ccn[nH]4)ccc23)c1` [Example 188] had an EC50 of 8320 nM.

In turn, `Nc1nc(N[C@H]2CC[C@H](O)C2)c2ccc(-c3ccn[nH]3)cc2n1` [Example 47] displayed an EC50 of 550 nM.

Take `Nc1nc(NCc2cncnc2)c2ccc(-c3ccn[nH]3)cc2n1` [Example 49]: a half-maximal response (EC50) required 460 nM. In the case of `COc1ncc(CNc2nc(N)nc3cc(-c4ccn[nH]4)ccc23)cn1` [Example 48], the EC50 came out at 2920 nM. Then `Nc1nc(N[C@H]2C[C@H](O)C2)c2ccc(-c3ccn[nH]3)cc2n1` [Example 154], with 160 nM. With `CCCCONc1nc(N)nc2cc(-c3ccn[nH]3)ccc12` [Example 95], the EC50 amounted to 630 nM.

For `CC(C)(O)C(O)CNc1nc(N)nc2cc(-c3ccn[nH]3)ccc12` (single isomer, unassigned) [Example 10, 1-((2-amino-7-(1H-pyrazol-5-yl)quinazolin-4-yl)amino)-3-methylbutane-2,3-diol], the EC50 turned out to be 1860 nM.

Turning to `Nc1nc(NCc2ccnnc2)c2ccc(-c3ccn[nH]3)cc2n1` [Example 60], a half-maximal effect (EC50) was put at 3490 nM.

In the case of `Cn1ncnc1COc1nc(N)nc2cc(-c3ccn[nH]3)ccc12` [Example 7, 4-((1-methyl-1H-1,2,4-triazol-5-yl)methoxy)-7-(1H-pyrazol-5-yl)quinazolin-2-amine], the EC50 amounted to 4460 nM. The same measure for `CC(CCO)Nc1nc(N)nc2cc(-c3ccn[nH]3)ccc12` (single isomer, unassigned) [Example 201, 3-((2-amino-7-(1H-pyrazol-5-yl)quinazolin-4-yl)amino)butan-1-ol]: 70 nM. The compound `CCCCC(CCO)Nc1nc(N)nc2cc(-c3ccn[nH]3)ccc12` (single isomer, unassigned) [Example 101, 3-((2-amino-7-(1H-pyrazol-5-yl)quinazolin-4-yl)amino)heptan-1-ol] had an EC50 of 830 nM.

`C[C@@H](O)[C@@H](CO)Nc1nc(N)nc2cc(-c3ccn[nH]3)ccc12` [Example 64] came in with an EC50 of 3730 nM. `Nc1nc(NCCN2CCOCC2)c2ccc(-c3ccn[nH]3)cc2n1` [Example 157] yielded an EC50 of 1320 nM. With `COc1cc(-c2cc[nH]n2)cc2nc(N)nc(NCc3cncnc3)c12` [Example 135], the EC50 stood at 1440 nM. Then `CC(C)(CO)CCCNc1nc(N)nc2cc(-c3ccn[nH]3)ccc12` [Example 91], with 1300 nM. Then `Nc1nc(N2CCCOCC2)c2c(F)cc(-c3cc[nH]n3)cc2n1` [Example 123], with 2860 nM; and `CCn1cc(CNc2nc(N)nc3cc(-c4ccn[nH]4)ccc23)nn1` [Example 190], with 4890 nM. Then `Nc1nc(NC(CO)c2cccnc2)c2ccc(-c3ccn[nH]3)cc2n1` (stereo not shown) [Example 62], with 1250 nM; and `CNc1nc(N)nc2cc(-c3ccn[nH]3)ccc12` [Example 84], with 280 nM; and `CC(C)(O)C(O)CNc1nc(N)nc2cc(-c3ccn[nH]3)ccc12` (racemic) [Example 8, rac-1-((2-amino-7-(1H-pyrazol-5-yl)quinazolin-4-yl)amino)-3-methylbutane-2,3-diol], with 2150 nM. In the case of `Nc1nc(NCc2ncc[nH]2)c2ccc(-c3ccn[nH]3)cc2n1` [Example 39], the EC50 was determined as 1320 nM. With `Nc1nc(N[C@H]2CCC[C@@H](O)C2)c2ccc(-c3ccn[nH]3)cc2n1` (single isomer, unassigned) [Example 179, (cis)-3-((2-amino-7-(1H-pyrazol-5-yl)quinazolin-4-yl)amino)cyclohexan-1-ol], the midpoint of the response, the EC50, lay at 270 nM.

On to `Nc1nc(NC(CO)CO)c2ccc(-c3ccn[nH]3)cc2n1` [Example 74], for which the EC50 stood at 780 nM. On to `C[C@]1(O)CC[C@@H](Nc2nc(N)nc3cc(-c4ccn[nH]4)ccc23)C1` (racemic) [Example 107], for which the midpoint of the response, the EC50, lay at 670 nM. `Nc1nc(NCc2ccncn2)c2ccc(-c3ccn[nH]3)cc2n1` [Example 50] yielded an EC50 of 1870 nM.
